Two molecules from US20260174875A1 (Novo Nordisk A/S, priority 2023, published 2026) can be followed below.

Numbered stars: 1 amine (or outer) side, 2 acyl side, 3 side chain; on linkers, the order of the positions; unused ones are H or OH. Square brackets hold non-standard residues; d marks the D form. Side chains are listed from the residue outwards. * marks the point of attachment. C16 diacid = O=C(O)CCCCCCCCCCCCCCC(=O)*; γGlu = O=C(O)[C@H](CCC(=O)[*:2])N[*:1]; AEEA = NCCOCCOCC(=O)O; Aib = CC(C)(N)C(=O)O

Format in all cases: cell-based
Assay [1] deals with T1, human GLP-1 receptor (hGLP-1R) (Homo sapiens, UniProt P43220).
T1 construct: expressed in transfected cells
In words: GLP-1 receptor assay, method A (CRE-luciferase reporter, BHK cells). The conditions noted are these: method A, absence of HSA; read-out: hGLP-1R Potency, no HSA, EC50. The essentials:
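In this CRE-luciferase reporter assay, the human receptor was expressed in BHK cells, and cAMP signalling was followed after a 3 h stimulation at 37° C. The buffer contained 1% (w/v) ovalbumin, and testing was done with and without 1% (w/v) human serum albumin.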
In general terms: A reporter such as luciferase makes a cellular process visible.

Assay [2] has as its target T1, human GLP-1 receptor (hGLP-1R). In words: GLP-1 receptor assay, method B (CRE-luciferase reporter, BHK cells, 384-well). The conditions noted are these: hGLP-1R Potency.
Procedure: Cells at approximately 80-90% confluence were washed once in PBS (Gibco 14190-094) and loosened from the cell flasks with Versene (Gibco, 15040-033). […] Cells were aliquoted and stored at −180° C. until use.
The assay buffer consisted of DMEM without phenol red (Gibco, 11880-028) supplemented with 1× GlutaMAX (Gibco, 35050-038), 10 mM HEPES (Gibco, 15630-056), 1% (w/v) ovalbumin (Sigma, A5503) and 0.1% (v/v) Pluronic F-68 (Gibco, 24040-032) either with HSA or without HSA (Sigma, A9511).
Serial dilutions were transferred to a 384-well assay plate (PerkinElmer/Revvity, 6007688) and mixed with an equal volume (10 μL) of assay buffer without or with 3% (w/v) HSA (Sigma, A-9511). Frozen stocks of hGLP-1R BHK Cre-Luc cells were thawed in a 37° C. water bath, washed once in PBS (Gibco 14190-094), diluted to 1.5×10^5 (1.5E+5) cells/mL in assay buffer (without HSA) and added (10 μL) to each well of the 384-well assay plate. After a short centrifugation, the assay plates were incubated for 3 hours at 37° C. in 5% CO2 and let to equilibrated at room temperature for 10 minutes before the addition of 30 μL steadylite Plus™ PerkinElmer/Revvity, 6066759) per well. Plates were sealed and incubated at room temperature with gentle shaking for 30 minutes while protected from light. Luminescence was detected on a luminescence plate reader e.g. a Synergy 2 (BioTek).
The target in assay [3] is T2, human amylin receptor (hAMYR3) (Homo sapiens, UniProt O60896+P30988).
T2 construct: host or cells: BHK cells (Hollex-1 line expressing hCTR(a) and CRE-Luc), further transfected with human RAMP3
In words: Amylin receptor assay, method A (CRE-luciferase reporter, BHK cells). The note with it: method A, absence of HSA; read-out: hAMYR3 Potency, no HSA, EC50.

Assay [4] concerns the target T3, human GIP receptor (hGIPR) (Homo sapiens, UniProt P48546).
T3 construct: expressed in transfected cells
T3 sequence (P48546 22-466): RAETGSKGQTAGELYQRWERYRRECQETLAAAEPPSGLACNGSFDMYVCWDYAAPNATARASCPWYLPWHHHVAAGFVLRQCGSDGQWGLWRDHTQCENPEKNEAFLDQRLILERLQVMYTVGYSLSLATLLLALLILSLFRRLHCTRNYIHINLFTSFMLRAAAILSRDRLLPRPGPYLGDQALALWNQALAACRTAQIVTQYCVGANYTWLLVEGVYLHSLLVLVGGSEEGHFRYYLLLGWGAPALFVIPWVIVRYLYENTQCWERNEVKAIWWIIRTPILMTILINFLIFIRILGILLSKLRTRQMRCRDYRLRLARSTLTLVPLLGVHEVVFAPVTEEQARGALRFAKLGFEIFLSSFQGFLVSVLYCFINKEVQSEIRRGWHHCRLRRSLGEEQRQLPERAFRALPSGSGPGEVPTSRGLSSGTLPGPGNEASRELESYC
In words: GIP receptor assay, method B (CRE-luciferase reporter, BHK cells, 384-well). The note with it: hGIPR Potency.

Assay [5] has as its target T3, human GIP receptor (hGIPR). In words: GIP receptor assay, method A (CRE-luciferase reporter, BHK cells). The note with it: method A, absence of HSA; read-out: hGIPR Potency, no HSA, EC50. The essentials: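 BHK cells co-expressing hGIPR and a CRE-luciferase reporter, plated 21-23 h before assay, stimulated 3 h at 37 °C with compounds (7-point 10-fold titration, duplicates) in ovalbumin-containing DMEM buffer with or without 1% HSA final. Luminescence read; EC50 (pM) from four-parameter logistic fit with shared Hill slope.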

Assay [6] concerns the target T2, human amylin receptor (hAMYR3). In words: Amylin receptor assay, method B (CRE-luciferase reporter, BHK cells). The conditions noted are these: hAMYR3 Potency. As for the experimental part:
To assess how the activation of the receptors is potentially influenced by the presence of human serum albumin (HSA), the in vitro assays were performed in the absence of HSA and presence of 1% (w/v) HSA.
It is thus possible to measure hAMYR3 activity using a CRE-luciferase reporter gene introduced into Baby Hamster Kidney (BHK) cells co-expressing the hAMYR3.
The cell line was further transfected with human receptor modifying protein 3 (RAMP3) using standard methods.
After centrifugation, the cell pellet was resuspended and diluted to approximately 2.5-4.0×10^6 (2.5E+6 to 4.0E+6) cells/mL in Recovery™ Cell Culture Freezing Medium (Gibco, 12648-010). Cells were aliquoted and stored at −180° C. until use.
The assay buffer consisted of DMEM without phenol red (Gibco, 11880-028) supplemented with 1× GlutaMAX (Gibco, 35050-038), 10 mM HEPES (Gibco, 15630-056) and 1% (w/v) ovalbumin (Sigma, A5503) either with or without 0.1% (v/v) Pluronic F-68 (Gibco, 24040-032) and either with or without HSA (Sigma, A9511).
To perform the assay, hAMYR3 BHK Cre-Luc cells were thawed, washed once in PBS (Gibco 14190-094) and seeded in 40 μL growth medium in a white 384-well culture plate (PerkinElmer/Revvity, 6007688) at a cell density of 4.0×10^3 (4.0E+3) cells/well the day before the experiment. The plate was incubated over night at 37° C. in 5% CO2. […] Serial dilutions were then mixed in a new 96-well plate with equal volume (1:1:1 ratio) of assay buffer and either assay buffer without or with 3% HSA (Sigma, A-9511). Twenty microliters of the solution mix were transferred to the cells which previously were washed once with PBS (Gibco 14190-094). After a short centrifugation, the assay plates were incubated for 3 hours at 37° C. in 5% CO2 and let to equilibrated at room temperature for 10 minutes before the addition of 30 μL steadylite Plus™ PerkinElmer/Revvity, 6066759) per well. Plates were sealed and incubated at room temperature with gentle shaking for 30 minutes while protected from light. Luminescence was detected on a luminescence plate reader e.g., a Synergy 2 (BioTek).

Setting [7] is: 1% HSA, EC50, methods B, in the presence of 1% HSA.
Where [8] appears, read: no HSA, EC50, method B, absence of HSA.

The EC50 is the concentration giving half of the maximal effect.

T1 sequence (P43220 24-463): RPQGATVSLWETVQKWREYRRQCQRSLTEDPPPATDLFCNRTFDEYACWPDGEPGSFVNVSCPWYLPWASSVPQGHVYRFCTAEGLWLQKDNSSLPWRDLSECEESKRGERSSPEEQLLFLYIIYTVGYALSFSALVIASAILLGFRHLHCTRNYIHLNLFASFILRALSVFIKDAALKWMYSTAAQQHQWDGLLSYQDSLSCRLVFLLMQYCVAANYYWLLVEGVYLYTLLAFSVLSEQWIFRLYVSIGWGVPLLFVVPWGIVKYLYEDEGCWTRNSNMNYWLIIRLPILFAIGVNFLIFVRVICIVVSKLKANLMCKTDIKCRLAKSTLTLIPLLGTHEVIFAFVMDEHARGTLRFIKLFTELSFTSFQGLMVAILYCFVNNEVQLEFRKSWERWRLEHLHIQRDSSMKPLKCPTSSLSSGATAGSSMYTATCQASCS
T2 sequence (P30988 25-474): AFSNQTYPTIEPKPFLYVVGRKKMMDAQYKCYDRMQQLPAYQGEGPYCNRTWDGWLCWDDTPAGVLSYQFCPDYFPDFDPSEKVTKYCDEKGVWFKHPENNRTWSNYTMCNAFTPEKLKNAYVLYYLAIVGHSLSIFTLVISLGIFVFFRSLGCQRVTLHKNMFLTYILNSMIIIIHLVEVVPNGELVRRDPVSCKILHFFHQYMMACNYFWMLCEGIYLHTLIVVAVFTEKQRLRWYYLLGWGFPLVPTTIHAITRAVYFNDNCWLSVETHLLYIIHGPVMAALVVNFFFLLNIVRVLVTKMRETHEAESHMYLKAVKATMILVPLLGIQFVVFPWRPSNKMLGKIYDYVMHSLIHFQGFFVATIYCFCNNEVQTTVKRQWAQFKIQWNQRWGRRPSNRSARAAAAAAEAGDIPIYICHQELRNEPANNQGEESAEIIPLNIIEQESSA
T2 sequence (O60896 24-148): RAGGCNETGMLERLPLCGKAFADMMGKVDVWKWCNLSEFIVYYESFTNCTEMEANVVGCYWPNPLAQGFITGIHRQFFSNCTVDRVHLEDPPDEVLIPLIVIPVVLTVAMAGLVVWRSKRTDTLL

On to “Y[Aib]EGTFTSDYSILLEEQAAREFIEWLLAGGPSK([AEEA-AEEA-γGlu-C16 diacid])GEASELSTAALGRLSAELHRLATLPRTETGSGSP-NH2 [Compound 18]”, for which the EC50 in assay [1] came out at 0.0528 nM; in assay [2] (setting [7]) it was 0.135 nM; in assay [3] it was 0.00393 nM; in assay [4] (setting [7]), 0.0201 nM; in assay [5] it was 0.00725 nM; in assay [6] (setting [7]), 1.3 nM.
On to `CC[C@H](C)[C@H](NC(=O)[C@H](CCC(=O)O)NC(=O)[C@H](CCC(=O)O)NC(=O)[C@H](CC(C)C)NC(=O)[C@H](CC(C)C)NC(=O)[C@@H](NC(=O)[C@H](CO)NC(=O)[C@H](Cc1ccc(O)cc1)NC(=O)[C@H](CC(=O)O)NC(=O)[C@H](CO)NC(=O)[C@@H](NC(=O)[C@H](Cc1ccccc1)NC(=O)[C@@H](NC(=O)CNC(=O)[C@H](CCC(=O)O)NC(=O)C(C)(C)NC(=O)[C@@H](N)Cc1ccc(O)cc1)[C@@H](C)O)[C@@H](C)O)[C@@H](C)CC)C(=O)N[C@@H](C)C(=O)N[C@@H](C)C(=O)N[C@@H](CCCNC(=N)N)C(=O)N[C@@H](CCC(=O)O)C(=O)N[C@@H](Cc1ccccc1)C(=O)N[C@H](C(=O)N[C@@H](CCC(=O)O)C(=O)N[C@@H](Cc1c[nH]c2ccccc12)C(=O)N[C@@H](CC(C)C)C(=O)N[C@@H](CC(C)C)C(=O)N[C@@H](C)C(=O)NCC(=O)NCC(=O)N1CCC[C@H]1C(=O)N[C@@H](CO)C(=O)N[C@@H](CO)C(=O)NCC(=O)N[C@@H](C)C(=O)NCC(=O)N[C@@H](CCC(=O)O)C(=O)N[C@@H](C)C(=O)N1CCC[C@H]1C(=O)NCC(=O)N[C@@H](CCC(=O)O)C(=O)N[C@@H](C)C(=O)N1CCC[C@H]1C(=O)NCC(=O)N[C@@H](C)C(=O)N[C@@H](CO)C(=O)N[C@@H](Cc1c[nH]cn1)C(=O)N[C@@H](CC(C)C)C(=O)N[C@@H](CO)C(=O)N[C@H](C(=O)N[C@@H](C)C(=O)N[C@@H](CCC(N)=O)C(=O)N[C@H](C(=O)N[C@@H](CCC(N)=O)C(=O)N[C@@H](CCCNC(=N)N)C(=O)N[C@@H](CC(C)C)C(=O)N[C@@H](CO)C(=O)N[C@@H](C)C(=O)N[C@@H](CCC(=O)O)C(=O)N[C@@H](CC(C)C)C(=O)N[C@@H](Cc1c[nH]cn1)C(=O)N[C@@H](CCCCNC(=O)COCCOCCNC(=O)COCCOCCNC(=O)CC[C@H](NC(=O)CCCCCCCCCCCCCCCCCCC(=O)O)C(=O)O)C(=O)N[C@@H](CC(C)C)C(=O)N[C@@H](C)C(=O)N[C@H](C(=O)N[C@@H](CC(C)C)C(=O)N1CCC[C@H]1C(=O)N[C@@H](CCCNC(=N)N)C(=O)N[C@H](C(=O)N[C@@H](CCC(=O)O)C(=O)N[C@H](C(=O)NCC(=O)N[C@@H](CO)C(=O)NCC(=O)N[C@@H](CO)C(=O)N1CCC[C@H]1C(N)=O)[C@@H](C)O)[C@@H](C)O)[C@@H](C)O)[C@@H](C)O)[C@@H](C)O)[C@@H](C)CC` [Compound 189], for which the concentration giving a half-maximal response (EC50) is 0.0819 nM in assay [2] (setting [7]); 0.0269 nM in assay [2] (setting [8]); 0.00918 nM in assay [4] (setting [7]); 0.00318 nM in assay [4] (setting [8]); 1.21 nM in assay [6] (setting [7]); 0.0127 nM in assay [6] (setting [8]).
